Patent US6444234B1, “Compositions for rapid and non-irritating transdermal delivery of pharmaceutically active agents and methods for formulating such compositions and delivery thereof” (priority 1998, dated 2002)

Columns and labels:
[1] = Pilot trial on three hairless rats, blood samples after topical delivery system; type: in vivo, hairless rat
Protocol: A pilot trial is performed on three hairless rats, during which a baseline blood sample is drawn, then 1 ml of the topical delivery system containing a titrated dose of each of the three test drugs is administered to each of the rats. Samples are harvested at 30 and 60 minutes.

[2] = type: physicochemical
Excerpt: The following tables are typical data sheets generated by the Chem3D software. These charts confirm the independent experimental solubility data and also, in Tables 1-3, show how modulation of the carrier system allows a higher dose of the test medicament, Diosgenin (MW=414.61).
It is pointed out, however, that the formulations shown in the following Tables, and which are based on the above described Stock Delivery System, were originally prepared without benefit of the use of the Chem 3D software and included omission of several different modifiers. Modifications to the SDS to effect solubilization and increase solute solvent ratios were made by the inventor on the basis of knowledge of how and where the solute (drug) works in the body and using this information to make intuitive predictions of how the solute would interact with the surrounding molecules of the SDS, such as induced polarities relative to other molecules; induction of electric fields due to influence of surrounding molecules; hydrophobic versus hydrophilic properties, etc., while always taking into consideration the desired functional effects contributed by each ingredient. […]

air pouch granulomas = test: Murine Chronic Granulomatous Air-Pouch Model; type: in vivo, mouse; conditions: normally sub-effective dose (30 mg/kg); decrease in dry weight of the granuloma
Excerpt: This example describes the results of an animal (mouse) study performed at St. Bartholomew's and The Royal London School of Medicine and Dentistry, Department of Experimental Pathology, to establish the efficacy of the topical delivery system, based on the Stock Delivery System of this invention for transdermal delivery of Cystamine (2,2′-dithiobisethanamine). A Murine Chronic Granulomatous Air-Pouch Model was used for evaluation of the delivery of the drug with SDS versus a control vehicle alone; control vehicle plus drug; and SDS alone.
In this study, 1 milligram (mg) of cystamine was added to 0.5 cc of Standard Stock Solution (SDS) as previously described, or to a control vehicle (aqueous isopropanol). In each case, the active ingredient (cystamine) was administered in an amount of 30 mg per kilogram of body weight.
Mice (TO or BALB/c, for hormone studies, 30±5 g) were lightly anaesthetized with halothane. Three milliliters of air were injected subcutaneously into the scruff of the neck using a 25 G needle. The shape of the air pouch was controlled by manipulation during inflation. […]
Vascularity was assessed by a modified form (see Kimura et al, [need citation] 1986) of the Carmine Red Vascular Casting technique. […] The dye content was measured spectrophotometrically at 490 nm against a standard curve of dye from 1-100 μg/ml. […]

[3] = Full-scale protocol trial on 15 hairless rats; conditions: topical
Protocol: Samples for the morphine and acyclovir groups are taken at 30 minutes, 60 minutes and 120 minutes.

[4] = Laboratory solubilization of amitriptyline in the modified stock delivery system; type: physicochemical; conditions: modified SDS; predicted amount within experimental error of the actual amount
Excerpt: The following Table 4 illustrates how the balancing of molar van der Waals forces can be utilized as a predictor of the solubilization of amitriptyline in the stock delivery system. In this case the calculations for balancing molar van der Waals forces were made first using the Chem3D software and the solutions were thereafter formulated in the laboratory. The amount predicted to dissolve, 2.08 gm per 100 c.c., was within experimental error of the actual amount which would dissolve in the laboratory experiment. In this case, the system was balanced by increasing the amounts of methylsulfonylmethane and ethanol and decreasing the amount of propylene glycol.

SMILES: Nc1nc2c(ncn2COCCO)c(=O)[nH]1 [Acyclovir]
- blood sample level, Baseline ([1]; hairless, rat, in vivo): 0

SMILES: C[C@@H]1CC[C@@]2(OC1)O[C@H]1C[C@H]3[C@@H]4CC=C5C[C@@H](O)CC[C@]5(C)[C@H]4CC[C@]3(C)[C@H]1[C@@H]2C [Diosgenin, (25R)-Spirost-5-en-3β-ol]
- increase of solubilized dose [2]: ~5 fold

SMILES: NCCSSCCN [cystamine, 2,2′-dithiobisethanamine]
- efficacy of the dose when delivered with SDS (air pouch granulomas): effective dose

SMILES: CN1CC[C@]23c4c5ccc(O)c4O[C@H]2[C@@H](O)C=C[C@H]3[C@H]1C5.O=S(=O)(O)O [morphine sulfate]
- blood levels compared with intravenous dosing ([3]; 2.5 mg dose of morphine): equivalent to a 10 mg IV dose
- blood sample level, Baseline ([1]; before 1 ml of the topical delivery system): 0
- blood sample level, 60 minutes ([1]; morphine 2.5 mg in 1 ml, topical): 45 nmol/L

SMILES: CN(C)CCC=C1c2ccccc2CCc2ccccc21 [Amitriptyline]
- actual amount which would dissolve in the laboratory experiment [4]: ~2.08 gm per 100 c.c.

SMILES: C[C@]12CC[C@H]3[C@@H](CCC4=CC(=O)CC[C@@]43C)[C@@H]1CC[C@@H]2O [Testosterone]
- increase of testosterone levels ([3]; in one hour, 5 mg in 1 ml): 10 fold
- blood sample level, 30 minutes ([1]; testosterone 5 mg in 1 ml, topical): 1,552 ng/dl
